Data reported in ChEMBL document CHEMBL1275577, “Study of the in vitro activities of rifaximin and comparator agents against 536 anaerobic intestinal bacteria from the perspective of potential utility in pathology involving bowel flora” (Antimicrob Agents Chemother, 2009).
≈ marks a conversion by molar mass, not a printed value.

How the values were obtained:
Type in all cases: functional
Bacteroides fragilis = assay: Antimicrobial activity against Bacteroides fragilis by Wadsworth agar dilution method
Bacteroides ovatus = assay: Antimicrobial activity against Bacteroides ovatus by Wadsworth agar dilution method
Bacteroides caccae = assay: Antimicrobial activity against Bacteroides caccae by Wadsworth agar dilution method
Bacteroides nordii = assay: Antimicrobial activity against Bacteroides nordii by Wadsworth agar dilution method
Bacteroides uniformis = assay: Antimicrobial activity against Bacteroides uniformis by Wadsworth agar dilution method
[1] = system: Desulfovibrio desulfuricans; assay: Antimicrobial activity against Desulfovibrio desulfuricans by Wadsworth agar dilution method
[2] = system: Desulfovibrio fairfieldensis; assay: Antimicrobial activity against Desulfovibrio fairfieldensis by Wadsworth agar dilution method
Desulfovibrio vulgaris = assay: Antimicrobial activity against Desulfovibrio vulgaris by Wadsworth agar dilution method; conditions: Nitratidesulfovibrio vulgaris
Desulfovibrio sp. = assay: Antimicrobial activity against Desulfovibrio sp. by Wadsworth agar dilution method
[3] = system: Fusobacterium necrophorum; assay: Antimicrobial activity against Fusobacterium necrophorum by Wadsworth agar dilution method
Fusobacterium sp. = assay: Antimicrobial activity against Fusobacterium sp. by Wadsworth agar dilution method
Porphyromonas = assay: Antimicrobial activity against Porphyromonas sp. by Wadsworth agar dilution method
[4] = system: Porphyromonas asaccharolytica; assay: Antimicrobial activity against Porphyromonas asaccharolyticus by Wadsworth agar dilution method
Porphyromonas somerae = assay: Antimicrobial activity against Porphyromonas somerae by Wadsworth agar dilution method
Prevotella bivia = assay: Antimicrobial activity against Prevotella bivia by Wadsworth agar dilution method
[5] = system: Enterocloster clostridioformis; assay: Antimicrobial activity against Clostridium clostridioforme by Wadsworth agar dilution method
Clostridium hathewayi = assay: Antimicrobial activity against Clostridium hathewayi by Wadsworth agar dilution method; conditions: Hungatella hathewayi
Clostridium bartlettii = assay: Antimicrobial activity against Clostridium bartlettii by Wadsworth agar dilution method; conditions: Intestinibacter bartlettii
Clostridium bolteae = assay: Antimicrobial activity against Clostridium bolteae by Wadsworth agar dilution method; conditions: Enterocloster bolteae
Clostridium butyricum = assay: Antimicrobial activity against Clostridium butyricum by Wadsworth agar dilution method
Clostridium fallax = assay: Antimicrobial activity against Clostridium fallax by Wadsworth agar dilution method
Tissierella praeacuta = assay: Antimicrobial activity against Clostridium hastiforme by Wadsworth agar dilution method
[6] = system: Clostridium paraputrificum; assay: Antimicrobial activity against Clostridium paraputrificum by Wadsworth agar dilution method
Fusobacterium mortiferum = assay: Antimicrobial activity against Clostridium rectum by Wadsworth agar dilution method
Clostridium scindens = assay: Antimicrobial activity against Clostridium scindens by Wadsworth agar dilution method
Clostridium septicum = assay: Antimicrobial activity against Clostridium septicum by Wadsworth agar dilution method
Clostridium spiroforme = assay: Antimicrobial activity against Clostridium spiroforme by Wadsworth agar dilution method; conditions: Thomasclavelia spiroformis
Clostridium sporogenes = assay: Antimicrobial activity against Clostridium sporogenes by Wadsworth agar dilution method
Clostridium subterminale = assay: Antimicrobial activity against Clostridium subterminale by Wadsworth agar dilution method
Atopobium minutum = assay: Antimicrobial activity against Atopobium minutum by Wadsworth agar dilution method
[7] = system: Bifidobacterium adolescentis; assay: Antimicrobial activity against Bifidobacterium adolescentis by Wadsworth agar dilution method
Bifidobacterium bifidum = assay: Antimicrobial activity against Bifidobacterium bifidum by Wadsworth agar dilution method
Bifidobacterium breve = assay: Antimicrobial activity against Bifidobacterium breve by Wadsworth agar dilution method
Bifidobacterium dentium = assay: Antimicrobial activity against Bifidobacterium dentium by Wadsworth agar dilution method
Bifidobacterium longum = assay: Antimicrobial activity against Bifidobacterium longum by Wadsworth agar dilution method
[8] = Antimicrobial activity against Bifidobacterium pseudocatenulatum by Wadsworth agar dilution method
Collinsella aerofaciens = assay: Antimicrobial activity against Colinsella aerofaciens by Wadsworth agar dilution method
Eubacterium cylindroides = assay: Antimicrobial activity against Eubacterium cylindroides by Wadsworth agar dilution method; conditions: Faecalitalea cylindroides
Eubacterium limosum = assay: Antimicrobial activity against Eubacterium limosum by Wadsworth agar dilution method
Holdemania filiformis = assay: Antimicrobial activity against Holdemania filiformis by Wadsworth agar dilution method
[9] = system: Lactobacillus catenaformis; assay: Antimicrobial activity against Lactobacillus catenaformis by Wadsworth agar dilution method; conditions: Eggerthia catenaformis
[10] = system: Lactiplantibacillus plantarum; assay: Antimicrobial activity against Lactobacillus plantarum by Wadsworth agar dilution method
Propionibacterium avidum = assay: Antimicrobial activity against Propionibacterium avidum by Wadsworth agar dilution method; conditions: Cutibacterium avidum
Finegoldia magna = assay: Antimicrobial activity against Finegoldia magna by Wadsworth agar dilution method
[11] = system: Peptoniphilus asaccharolyticus; assay: Antimicrobial activity against Peptoniphilus asaccharolyticus by Wadsworth agar dilution method
[12] = system: Peptostreptococcus anaerobius; assay: Antimicrobial activity against Peptostreptococcus anaerobius by Wadsworth agar dilution method
Ruminococcus gnavus = assay: Antimicrobial activity against Ruminococcus gnavus by Wadsworth agar dilution method; conditions: Mediterraneibacter gnavus
Blautia luti = assay: Antimicrobial activity against Ruminococcus luti by Wadsworth agar dilution method

In the case of `NC[C@@H]1O[C@H](O[C@H]2[C@@H](O)[C@H](O[C@@H]3[C@@H](O)[C@H](N)C[C@H](N)[C@H]3O[C@H]3O[C@H](CN)[C@@H](O)[C@H](O)[C@H]3N)O[C@@H]2CO)[C@H](N)[C@@H](O)[C@@H]1O` [FRAMYCETIN], the MIC50 (Bacteroides fragilis) is reported as greater than 1020 µg/mL, the MIC90 (Bacteroides fragilis) is reported as greater than 1020 µg/mL and the MIC50 (Bacteroides ovatus) is reported as greater than 1020 µg/mL. It also gave an MIC90 (Bacteroides ovatus) greater than 1020 µg/mL, an MIC50 (Bacteroides caccae) greater than 1020 µg/mL and an MIC90 (Bacteroides caccae) greater than 1020 µg/mL. For the same compound, the MIC50 (Bacteroides nordii) was greater than 1020 µg/mL, the MIC90 (Bacteroides nordii) was greater than 1020 µg/mL and the MIC50 (Bacteroides uniformis) was greater than 1020 µg/mL. For the same compound, the MIC90 (Bacteroides uniformis) was greater than 1020 µg/mL, the MIC [1] was greater than 1020 µg/mL and the MIC50 [1] was greater than 1020 µg/mL. For the same compound, the MIC90 [1] was greater than 1020 µg/mL, the MIC50 [2] was 256 µg/mL (≈ 416 µM) and the MIC90 [2] was 1020 µg/mL (≈ 1670 µM). The MIC50 (Desulfovibrio vulgaris) was 256 µg/mL (≈ 416 µM), the MIC90 (Desulfovibrio vulgaris) was 1020 µg/mL (≈ 1670 µM) and the MIC50 (Desulfovibrio sp.) was 256 µg/mL (≈ 416 µM). The MIC90 (Desulfovibrio sp.) was 1020 µg/mL (≈ 1670 µM), the MIC50 [3] was 512 µg/mL (≈ 833 µM) and the MIC90 [3] was greater than 1020 µg/mL. For the same compound, the MIC50 (Fusobacterium sp.) was 512 µg/mL (≈ 833 µM), the MIC90 (Fusobacterium sp.) was greater than 1020 µg/mL and the MIC50 (Porphyromonas) was 512 µg/mL (≈ 833 µM). It also gave an MIC90 (Porphyromonas) greater than 1020 µg/mL, an MIC50 [4] of 512 µg/mL (≈ 833 µM) and an MIC90 [4] greater than 1020 µg/mL. The MIC50 (Porphyromonas somerae) was 512 µg/mL (≈ 833 µM), the MIC90 (Porphyromonas somerae) was greater than 1020 µg/mL and the MIC50 (Prevotella bivia) was 512 µg/mL (≈ 833 µM). It also gave an MIC90 (Prevotella bivia) of 1020 µg/mL (≈ 1670 µM), an MIC50 [5] of 128 µg/mL (≈ 208 µM) and an MIC90 [5] of 128 µg/mL (≈ 208 µM). The MIC50 (Clostridium hathewayi) was 64 µg/mL (≈ 104 µM), the MIC90 (Clostridium hathewayi) was 512 µg/mL (≈ 833 µM) and the MIC50 (Clostridium bartlettii) was 256 µg/mL (≈ 416 µM). It also gave an MIC90 (Clostridium bartlettii) of 1020 µg/mL (≈ 1670 µM), an MIC50 (Clostridium bolteae) of 256 µg/mL (≈ 416 µM) and an MIC90 (Clostridium bolteae) of 1020 µg/mL (≈ 1670 µM). For the same compound, the MIC50 (Clostridium butyricum) was 256 µg/mL (≈ 416 µM), the MIC90 (Clostridium butyricum) was 1020 µg/mL (≈ 1670 µM) and the MIC50 (Clostridium fallax) was 256 µg/mL (≈ 416 µM). The MIC90 (Clostridium fallax) was 1020 µg/mL (≈ 1670 µM), the MIC50 (Tissierella praeacuta) was 256 µg/mL (≈ 416 µM) and the MIC90 (Tissierella praeacuta) was 1020 µg/mL (≈ 1670 µM). It also gave an MIC50 [6] of 256 µg/mL (≈ 416 µM), an MIC90 [6] of 1020 µg/mL (≈ 1670 µM) and an MIC50 (Fusobacterium mortiferum) of 256 µg/mL (≈ 416 µM). The MIC90 (Fusobacterium mortiferum) was 1020 µg/mL (≈ 1670 µM), the MIC50 (Clostridium scindens) was 256 µg/mL (≈ 416 µM) and the MIC90 (Clostridium scindens) was 1020 µg/mL (≈ 1670 µM). The MIC50 (Clostridium septicum) was 256 µg/mL (≈ 416 µM), the MIC90 (Clostridium septicum) was 1020 µg/mL (≈ 1670 µM) and the MIC50 (Clostridium spiroforme) was 256 µg/mL (≈ 416 µM). It also gave an MIC90 (Clostridium spiroforme) of 1020 µg/mL (≈ 1670 µM), an MIC50 (Clostridium sporogenes) of 256 µg/mL (≈ 416 µM) and an MIC90 (Clostridium sporogenes) of 1020 µg/mL (≈ 1670 µM). The MIC50 (Clostridium subterminale) was 256 µg/mL (≈ 416 µM), the MIC90 (Clostridium subterminale) was 1020 µg/mL (≈ 1670 µM) and the MIC50 (Atopobium minutum) was 128 µg/mL (≈ 208 µM). It also gave an MIC90 (Atopobium minutum) of 1020 µg/mL (≈ 1670 µM), an MIC50 [7] of 128 µg/mL (≈ 208 µM) and an MIC90 [7] of 1020 µg/mL (≈ 1670 µM). It also gave an MIC50 (Bifidobacterium bifidum) of 128 µg/mL (≈ 208 µM), an MIC90 (Bifidobacterium bifidum) of 1020 µg/mL (≈ 1670 µM) and an MIC50 (Bifidobacterium breve) of 128 µg/mL (≈ 208 µM). The MIC90 (Bifidobacterium breve) was 1020 µg/mL (≈ 1670 µM), the MIC50 (Bifidobacterium dentium) was 128 µg/mL (≈ 208 µM) and the MIC90 (Bifidobacterium dentium) was 1020 µg/mL (≈ 1670 µM). The MIC50 (Bifidobacterium longum) was 128 µg/mL (≈ 208 µM), the MIC90 (Bifidobacterium longum) was 1020 µg/mL (≈ 1670 µM) and the MIC50 [8] was 128 µg/mL (≈ 208 µM). The MIC90 [8] was 1020 µg/mL (≈ 1670 µM), the MIC50 (Collinsella aerofaciens) was 128 µg/mL (≈ 208 µM) and the MIC90 (Collinsella aerofaciens) was 1020 µg/mL (≈ 1670 µM). It also gave an MIC50 (Eubacterium cylindroides) of 128 µg/mL (≈ 208 µM), an MIC90 (Eubacterium cylindroides) of 1020 µg/mL (≈ 1670 µM) and an MIC50 (Eubacterium limosum) of 128 µg/mL (≈ 208 µM). The MIC90 (Eubacterium limosum) was 1020 µg/mL (≈ 1670 µM), the MIC50 (Holdemania filiformis) was 128 µg/mL (≈ 208 µM) and the MIC90 (Holdemania filiformis) was 1020 µg/mL (≈ 1670 µM). For the same compound, the MIC50 [9] was 128 µg/mL (≈ 208 µM), the MIC90 [9] was 1020 µg/mL (≈ 1670 µM) and the MIC50 [10] was 128 µg/mL (≈ 208 µM). For the same compound, the MIC90 [10] was 1020 µg/mL (≈ 1670 µM), the MIC50 (Propionibacterium avidum) was 128 µg/mL (≈ 208 µM) and the MIC90 (Propionibacterium avidum) was 1020 µg/mL (≈ 1670 µM). For the same compound, the MIC50 (Finegoldia magna) was 128 µg/mL (≈ 208 µM), the MIC90 (Finegoldia magna) was 512 µg/mL (≈ 833 µM) and the MIC50 [11] was 128 µg/mL (≈ 208 µM). For the same compound, the MIC90 [11] was 512 µg/mL (≈ 833 µM), the MIC50 [12] was 128 µg/mL (≈ 208 µM) and the MIC90 [12] was 512 µg/mL (≈ 833 µM). For the same compound, the MIC50 (Ruminococcus gnavus) was 128 µg/mL (≈ 208 µM), the MIC90 (Ruminococcus gnavus) was 512 µg/mL (≈ 833 µM) and the MIC50 (Blautia luti) was 128 µg/mL (≈ 208 µM). It also gave an MIC90 (Blautia luti) of 512 µg/mL (≈ 833 µM).
